Experimental data reported in ChEMBL document CHEMBL1201862, “PubChem BioAssay data set” (2004).
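Exposure lasted 48 hours, with cells grown in 96-well plates and compounds tested at five concentrations. GI50 = concentration required for 50% inhibition of growth.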 The source made the active and inactive calls. Rule as the data show it: active = GI50 up to about 1.1 µM and inactive = higher.

What was measured:
Experiment in all cases: inhibition of tumour cell growth, NCI panel, 48 h
SN12C = system: SN12C
SF-268 = system: SF-268
HT-29 = system: HT-29
OVCAR-4 = system: OVCAR-4
IGROV-1 = system: IGROV-1
DU-145 = system: DU-145
UACC-62 = system: UACC-62
KM12 = system: KM12
SK-OV-3 = system: SK-OV-3
OVCAR-8 = system: OVCAR-8
SR = system: SR
BT-549 = system: BT-549
SK-MEL-5 = system: SK-MEL-5
SNB-19 = system: SNB-19
UO-31 = system: UO-31
Hs-578T = system: Hs-578T
NCI-H522 = system: NCI-H522
A498 = system: A498
SK-MEL-2 = system: SK-MEL-2
RXF 393 = system: RXF 393

Measured: GI50

CO/N=C(\C(=O)Nn1cn[n+](CC(=O)[O-])c1)c1csc(N)n1
inactive: SN12C > 10 µM | SF-268 > 10 µM | HT-29 > 10 µM | OVCAR-4 > 10 µM | IGROV-1 > 10 µM | DU-145 > 10 µM | UACC-62 > 10 µM | KM12 > 10 µM | SK-OV-3 > 10 µM | OVCAR-8 > 10 µM | SR > 10 µM | BT-549 > 10 µM | SK-MEL-5 > 10 µM

COc1ccc(/C(Cl)=C(\C=O)c2cc(OC)c(OC)c(OC)c2)cc1OC
inactive: SN12C 23.2 µM | SNB-19 > 52.6 µM | UO-31 16.8 µM | SF-268 23.8 µM | HT-29 12.8 µM | OVCAR-4 24.3 µM | Hs-578T 27.5 µM | IGROV-1 44.5 µM | DU-145 44.7 µM | UACC-62 15.7 µM | NCI-H522 7.38 µM | KM12 24.8 µM | A498 37.9 µM | SK-OV-3 72.4 µM | OVCAR-8 17.8 µM | SR > 100 µM | SK-MEL-2 19.6 µM | SK-MEL-5 14.8 µM | RXF 393 > 100 µM

CCCCc1cc2c(cc1O)CCC1C2CC[C@@]2(C)C1CC[C@@H]2O (stereo partly specified)
inactive: SN12C 18.7 µM | SNB-19 25.5 µM | UO-31 14.5 µM | SF-268 29.6 µM | HT-29 23.2 µM | OVCAR-4 20.4 µM | Hs-578T 11.3 µM | IGROV-1 22 µM | DU-145 18.3 µM | UACC-62 11.6 µM | NCI-H522 14 µM | KM12 12.3 µM | A498 21.8 µM | SK-OV-3 16.3 µM | OVCAR-8 15.3 µM | SR 21.4 µM | SK-MEL-2 18.4 µM | SK-MEL-5 20.8 µM | RXF 393 2.89 µM

N#Cc1c(-c2ccc([N+](=O)[O-])cc2)cc(-c2ccc(Nc3ccnc4cc(C(F)(F)F)ccc34)cc2)[nH]c1=O
inactive: SN12C > 100 µM | SNB-19 24.4 µM | UO-31 > 100 µM | SF-268 > 100 µM | HT-29 92.9 µM | OVCAR-4 > 100 µM | IGROV-1 > 100 µM | DU-145 71.3 µM | UACC-62 > 100 µM | NCI-H522 > 100 µM | A498 > 100 µM | SK-OV-3 > 100 µM | OVCAR-8 > 100 µM | SR > 100 µM | BT-549 > 100 µM | SK-MEL-2 > 100 µM | SK-MEL-5 > 100 µM | RXF 393 > 100 µM

Cc1cc(Cl)ccc1C(=O)c1ccc2ccccc2c1C(=O)O
inactive: SNB-19 > 100 µM | UO-31 > 100 µM | SF-268 > 100 µM | HT-29 > 100 µM | OVCAR-4 > 100 µM | IGROV-1 > 100 µM | DU-145 > 100 µM | UACC-62 > 100 µM | NCI-H522 > 100 µM | KM12 > 100 µM | A498 > 100 µM | OVCAR-8 > 100 µM | SR > 100 µM | BT-549 > 100 µM | SK-MEL-2 > 100 µM | SK-MEL-5 > 100 µM | RXF 393 39.6 µM

COC(=O)[C@@]12CCCC(=O)[C@@H]1[C@H]1CCC[C@H]12
inactive: SN12C > 100 µM | SNB-19 > 100 µM | UO-31 > 100 µM | SF-268 > 100 µM | HT-29 > 100 µM | OVCAR-4 > 100 µM | IGROV-1 > 100 µM | DU-145 > 100 µM | UACC-62 > 100 µM | NCI-H522 > 100 µM | KM12 > 100 µM | SK-OV-3 > 100 µM | OVCAR-8 > 100 µM | SR > 100 µM | BT-549 > 100 µM | SK-MEL-2 > 100 µM | SK-MEL-5 > 100 µM | RXF 393 > 100 µM

CCNCCNC(=O)c1ccc(Br)cc1
inactive: SN12C > 100 µM | SNB-19 > 100 µM | UO-31 > 100 µM | SF-268 > 100 µM | HT-29 > 100 µM | OVCAR-4 > 100 µM | Hs-578T > 100 µM | IGROV-1 > 100 µM | UACC-62 > 100 µM | KM12 > 100 µM | A498 > 100 µM | SK-OV-3 > 100 µM | OVCAR-8 > 100 µM | SR > 100 µM | BT-549 > 100 µM | SK-MEL-5 > 100 µM | RXF 393 > 100 µM

c1ccc(-c2nnc(CCCCCCCCc3nnc(-c4ccccc4)o3)o2)cc1
inactive: SN12C > 100 µM | SNB-19 > 100 µM | UO-31 > 100 µM | SF-268 > 100 µM | HT-29 45.1 µM | OVCAR-4 > 100 µM | IGROV-1 66.5 µM | DU-145 > 100 µM | NCI-H522 25.9 µM | KM12 63.8 µM | A498 16.1 µM | SK-OV-3 > 100 µM | OVCAR-8 > 100 µM | BT-549 > 100 µM | SK-MEL-2 > 100 µM | SK-MEL-5 > 100 µM

N#C/C(C(=O)NCc1ccccc1)=C(/N)N1CCCC1
inactive: SN12C > 100 µM | SNB-19 > 100 µM | UO-31 46.3 µM | SF-268 > 100 µM | HT-29 > 100 µM | OVCAR-4 > 100 µM | Hs-578T > 100 µM | IGROV-1 > 100 µM | DU-145 > 100 µM | UACC-62 > 100 µM | NCI-H522 > 100 µM | KM12 > 100 µM | A498 94.8 µM | SK-OV-3 > 100 µM | OVCAR-8 > 100 µM | SR > 100 µM | SK-MEL-2 > 100 µM | SK-MEL-5 > 100 µM | RXF 393 > 100 µM

CS(=O)(=O)Nc1ccc(N2Cc3c[nH]c4ccc5nccc2c5c34)cc1
inactive: SN12C 14 µM | SNB-19 13.1 µM | UO-31 > 100 µM | HT-29 25.5 µM | OVCAR-4 14 µM | Hs-578T 39.1 µM | IGROV-1 22.2 µM | DU-145 18.3 µM | UACC-62 16.3 µM | NCI-H522 10.3 µM | KM12 17.6 µM | A498 23.2 µM | OVCAR-8 13.7 µM | BT-549 21.8 µM | SK-MEL-2 16.4 µM | SK-MEL-5 14.7 µM

C[C@@H](c1ccccc1)N1C[C@@H](c2ccc3c(c2)OCO3)[C@@H]2C(=O)CCC[C@@H]21
inactive: SN12C 59.8 µM | SNB-19 75 µM | UO-31 83 µM | SF-268 96.8 µM | HT-29 98.9 µM | OVCAR-4 43.8 µM | Hs-578T 72.9 µM | IGROV-1 41.1 µM | DU-145 > 100 µM | UACC-62 25.5 µM | NCI-H522 42.5 µM | KM12 97.9 µM | A498 28.6 µM | SK-OV-3 > 100 µM | OVCAR-8 > 100 µM | SR 42.8 µM | SK-MEL-2 41 µM | SK-MEL-5 36.8 µM | RXF 393 88.5 µM
